The text below walks through data of patent US6608082B1, “Treatment of erectile dysfunction using isoquinoline compound melanocortin receptor ligands” (Lion Bioscience AG, priority 1998, dated 2003).

One experiment concerns the target T1, MCR-1 (Homo sapiens, UniProt Q01726).
T1 construct: expressed in transfected cells; host or cells: HEK 293
Briefly: Melanocortin receptor binding assay, competition with 125I-HP 467, HEK 293 cells expressing hMCR-1. The settings on record: TRG 2406 and TRG 2407 libraries; inhibition of binding of 125I-HP 467; read-out: MC-1 IC50. The procedure, abridged: (§1)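 Intact-cell competition binding, 2.5 hr at 37 °C, in PBS/10% calf serum/1 mM CaCl2; hMCR-4 cells at 4×10^3 per tube, hMCR-1 cells at 2×10^4 per tube. Filtration on BSA/CaCl2-soaked GF/B, cold 50 mM Tris pH 7.4 washes, scintillation count.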

The target in another experiment is T2, MCR-4 (Homo sapiens, UniProt P32245).
T2 construct: expressed in transfected cells; host or cells: HEK 293
T2 sequence (P32245 whole entry): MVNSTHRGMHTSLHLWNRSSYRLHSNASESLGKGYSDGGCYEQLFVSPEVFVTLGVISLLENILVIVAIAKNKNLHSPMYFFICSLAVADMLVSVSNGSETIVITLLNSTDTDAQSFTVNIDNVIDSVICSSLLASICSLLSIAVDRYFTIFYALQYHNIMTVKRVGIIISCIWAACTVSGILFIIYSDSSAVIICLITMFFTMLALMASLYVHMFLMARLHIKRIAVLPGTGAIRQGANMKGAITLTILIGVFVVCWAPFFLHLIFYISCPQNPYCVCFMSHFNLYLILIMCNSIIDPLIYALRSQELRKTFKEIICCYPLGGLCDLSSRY
Briefly: Melanocortin receptor binding assay, competition with 125I-HP 467, HEK 293 cells expressing hMCR-4. The settings on record: TRG 2406 and TRG 2407 libraries, inhibition of binding of 125I-HP 467; for IC50: read-out: MC-4 IC50. The method in brief:
as §1

SMILES strings stand for the structures.

T1 sequence (Q01726 whole entry): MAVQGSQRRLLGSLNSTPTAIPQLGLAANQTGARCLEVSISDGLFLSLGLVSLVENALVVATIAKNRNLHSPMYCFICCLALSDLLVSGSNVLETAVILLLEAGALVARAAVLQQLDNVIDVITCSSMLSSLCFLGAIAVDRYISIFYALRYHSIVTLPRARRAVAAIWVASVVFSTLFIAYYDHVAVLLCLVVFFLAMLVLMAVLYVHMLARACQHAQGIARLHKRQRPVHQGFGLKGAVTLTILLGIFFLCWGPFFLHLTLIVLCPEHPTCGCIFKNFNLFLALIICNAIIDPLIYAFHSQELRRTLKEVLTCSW

A word on the IC50: it is the concentration at which inhibition is half-maximal. `CNC(CN)CCCCN1Cc2ccccc2C(CNc2ccccc2OC)C1c1ccc(Cl)cc1Cl` (centres unmarked) [TRG 2407-4]: the IC50 at MCR-1 is 3.65 µM; on MCR-4, 4.12 µM.
The matching figures for `CNC(CN)CCCCN1Cc2ccccc2C(CNc2cccc(Cl)c2)C1c1ccc(Cl)cc1Cl` (centres unmarked) [TRG 2407-5]: 8.82 µM and 14.7 µM.
The matching figures for `CCOc1cccc(NCC2c3ccccc3CN(CCCCC(CN)NC)C2c2ccc(Cl)cc2Cl)c1` (centres unmarked) [TRG 2407-6]: 3.42 µM and 6.97 µM.
With `CNC(CN)CCCCN1Cc2ccccc2C(CNc2cccc(O)c2)C1c1ccc(Cl)cc1Cl` (centres unmarked) [TRG 2407-7], the IC50 at MCR-1 was found to be 4.38 µM. For the same compound, the “MC-4 IC50” value on MCR-4 is “no fit”.
Regarding `CNC(CN)CCCCN1Cc2ccccc2C(CNc2ccc(Cl)cc2)C1c1ccc(Cl)cc1Cl` (centres unmarked) [TRG 2407-8], the IC50 on MCR-1 came to 10.9 µM; at MCR-4, 21.2 µM.
For `CNC(CN)CCCCN1Cc2ccccc2C(CNc2ccc(OC)cc2)C1c1ccc(Cl)cc1Cl` (centres unmarked) [TRG 2407-9], the IC50 at MCR-1 amounted to 2.53 µM; on MCR-4, 6.22 µM.
The matching figures for `CNC(CN)CCCCN1Cc2ccccc2C(CNCc2ccccc2)C1c1ccc(Cl)cc1Cl` (centres unmarked) [TRG 2407-10]: 4.13 µM and 3.85 µM.
The matching figures for `CNC(CN)CCCCN1Cc2ccccc2C(CN(C)Cc2ccccc2)C1c1ccc(Cl)cc1Cl` (centres unmarked) [TRG 2407-11]: 5.31 µM and 6.17 µM.
With `CNC(CN)CCCCN1Cc2ccccc2C(CNCc2ccccc2Cl)C1c1ccc(Cl)cc1Cl` (centres unmarked) [TRG 2407-12], the IC50 at MCR-1 amounted to 2.7 µM; at MCR-4 it was 3.23 µM.
For `CNC(CN)CCCCN1Cc2ccccc2C(CNCc2ccccc2C(F)(F)F)C1c1ccc(Cl)cc1Cl` (centres unmarked) [TRG 2407-13], the figures for the IC50 at MCR-1 and on MCR-4 were 8.5 µM and 9.25 µM, respectively.
Take `CCOc1ccccc1CNCC1c2ccccc2CN(CCCCC(CN)NC)C1c1ccc(Cl)cc1Cl` (centres unmarked) [TRG 2407-15]: the IC50 worked out at 1.2 µM at MCR-1 and 0.78 µM on MCR-4.
For `CNC(CN)CCCCN1Cc2ccccc2C(CNCc2cccc(OC)c2)C1c1ccc(Cl)cc1Cl` (centres unmarked) [TRG 2407-16] the same measures were 5.83 µM and 1.81 µM.
For `CNC(CN)CCCCN1Cc2ccccc2C(CNCc2cccc(C(F)(F)F)c2)C1c1ccc(Cl)cc1Cl` (centres unmarked) [TRG 2407-17], the IC50 amounted to 10.1 µM on MCR-1 and 9.22 µM on MCR-4.
The matching figures for `CNC(CN)CCCCN1Cc2ccccc2C(CNCc2ccc(Cl)cc2)C1c1ccc(Cl)cc1Cl` (centres unmarked) [TRG 2407-18]: 3.31 µM and 2.83 µM.
In the case of `CNC(CN)CCCCN1Cc2ccccc2C(CNCc2ccc(OC)cc2)C1c1ccc(Cl)cc1Cl` (centres unmarked) [TRG 2407-19], the IC50 at MCR-1 amounted to 2.29 µM; on MCR-4 it was 2.04 µM.
For `CNC(CN)CCCCN1Cc2ccccc2C(CNCc2ccc(C(F)(F)F)cc2)C1c1ccc(Cl)cc1Cl` (centres unmarked) [TRG 2407-20] the same measures were 3.78 µM and 3.49 µM.
For `CNC(CN)CCCCN1Cc2ccccc2C(CNCCc2ccccc2)C1c1ccc(Cl)cc1Cl` (centres unmarked) [TRG 2407-21], the IC50 on MCR-1 is 1.03 µM; on MCR-4, 0.36 µM.
For the compound `CNC(CN)CCCCN1Cc2ccccc2C(CNCCc2ccc(OC)cc2)C1c1ccc(Cl)cc1Cl` (centres unmarked) [TRG 2407-25], the figures for the IC50 on MCR-1 and at MCR-4 were 1.47 µM and 0.62 µM, respectively.
For `CNC(CN)CCCCN1Cc2ccccc2C(CNCCCc2ccccc2)C1c1ccc(Cl)cc1Cl` (centres unmarked) [TRG 2407-26] the same measures were 0.7 µM and 0.83 µM.
For `CNC(CN)CCCCN1Cc2ccccc2C(CNC2CCCC2)C1c1ccc(Cl)cc1Cl` (centres unmarked) [TRG 2407-27] the same measures were 0.57 µM and 0.53 µM.
For `CNC(CN)CCCCN1Cc2ccccc2C(CNC(C)C)C1c1ccc(-c2ccccc2)cc1` (centres unmarked) [TRG 2407-28] the same measures were 0.31 µM and 3.6 µM.
For the compound `CNC(CN)CCCCN1Cc2ccccc2C(CNC2CCCCCC2)C1c1ccc(Cl)cc1Cl` (centres unmarked) [TRG 2407-29], the IC50 on MCR-1 stood at 0.64 µM; on MCR-4, 0.77 µM.
